Reference: patent EP1190708A1, “Medical use of substances” (Tinnitus Forschungs- und Entwicklungs GmbH, priority 2000, dated 2002)

Tests used:
[1] = molecular target: T1, alpha9/alpha10 heteromeric acetylcholine receptors expressed in Xenopus oocytes (Rattus norvegicus, UniProt P43144+Q9JLB5); test: Voltage-clamp recording of current responses to acetylcholine in oocytes expressing alpha9/alpha10 subunits; type: cell-based
T1 construct: expressed in transfected cells; host or cells: Xenopus laevis oocytes injected with in vitro synthesised mRNA
T1 sequence (P43144 26-479): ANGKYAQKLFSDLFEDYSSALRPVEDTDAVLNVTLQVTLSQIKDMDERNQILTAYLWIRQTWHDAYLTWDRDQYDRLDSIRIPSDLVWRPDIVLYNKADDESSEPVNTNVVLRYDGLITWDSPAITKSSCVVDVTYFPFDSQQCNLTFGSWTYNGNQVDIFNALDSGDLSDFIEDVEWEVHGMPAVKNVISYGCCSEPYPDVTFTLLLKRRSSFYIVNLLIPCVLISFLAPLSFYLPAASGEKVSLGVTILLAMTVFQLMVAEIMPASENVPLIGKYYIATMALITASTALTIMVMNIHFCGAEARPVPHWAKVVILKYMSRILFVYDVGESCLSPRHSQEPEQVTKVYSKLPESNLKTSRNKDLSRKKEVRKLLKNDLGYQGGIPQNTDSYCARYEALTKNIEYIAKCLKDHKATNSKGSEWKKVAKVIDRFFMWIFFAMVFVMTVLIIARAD
T1 sequence (Q9JLB5 25-447): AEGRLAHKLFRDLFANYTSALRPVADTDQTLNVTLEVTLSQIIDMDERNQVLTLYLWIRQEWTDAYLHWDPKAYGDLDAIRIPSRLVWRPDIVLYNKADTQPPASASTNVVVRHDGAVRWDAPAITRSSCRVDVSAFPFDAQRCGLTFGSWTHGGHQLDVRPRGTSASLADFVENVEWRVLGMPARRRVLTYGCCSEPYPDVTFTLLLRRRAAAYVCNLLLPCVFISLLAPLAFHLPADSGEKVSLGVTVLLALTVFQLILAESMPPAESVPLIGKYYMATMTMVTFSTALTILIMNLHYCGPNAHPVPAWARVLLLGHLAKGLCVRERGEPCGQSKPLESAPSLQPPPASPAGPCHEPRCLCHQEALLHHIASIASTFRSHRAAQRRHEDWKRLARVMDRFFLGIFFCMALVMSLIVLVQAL
Procedure: In vitro mRNA synthesis and oocyte injections were performed as previously described (Fakler, B., Brandle, U., Glowatzki, E., Weidemann, S., Zenner, H.P. and Ruppersberg, J.P. 1995. Cell 80, 149-154; Oliver, D. et al., 2000, see above). The electrophysiology on oocytes was also performed as described previously (Oliver, D. et al., 2000, see above).
For further characterization of strychnine treatment on the nAChR, the mRNA of alpha9/alpha10 subunits of the acetylcholine receptor were injected in oocytes of Xexopus laevis.
After expression of these subunits, they were investigated by treatment with strychnine in voltage-clamp experiment. The cells were held at -30 mV. Current and time scaling are as indicated. As is shown in Fig. 2, similar results were obtained as in Fig. 1. Consistent with the model shown above, the current responses at the acetylcholine receptor could be blocked reversibly by application with the acetylcholine blocker strychnine.
For further characterization of memantine treatment on the neuronal acetylcholine receptor (nAChR), the mRNA of alpha9-/alpha10 subunits of the acetylcholine receptor were injected in oocytes of Xexopus laevis. After expression of that subunits, these subunits were investigated by treatment with memantine in voltage-clamp experiment. The cells were held at -30 mV. Current and time scaling are as indicated. As is shown in Fig. 4, similar results were obtained as in Fig. 3. In this experiment the polarization potential of the cells was meassured after application of 100 µM acetylcholine in the presence or absence of memantine. Consistent with the results obtained in Fig. 3, the current responses at the acetylcholine receptor could be blocked by application with memantine. A halfmaximal inhibition occurs at concentrations of approximately 1 µM, as is illustrated in Figur 4B.

[2] = system: inhibitory postsynaptic currents (IPSC) in outer hair cells; test: Voltage-clamp recording of inhibitory postsynaptic currents in outer hair cells of the organ of Corti preparation; type: cell-based, Wistar rats; parameters: inhibition of postsynaptic currents (reversibility): dose or concentration left out as unconfirmed
Procedure: Organs of Corti were dissected from the cochleae of Wistar rats (11-24 days old) as described previously (Oliver, D. and Fakler, B. 1999. J. Physiol. (Lond.) 519 pt. 3, 791-800; Oliver, D., Klöcker, N., Schluck, J., Baukrowitz, T., Rup-persberg, J.P. and Fakler, B. 2000. Neuron 26, 591-601). The electrophysiology on OHCs was also described previously (Oliver, D. et al., 2000, see above).
(§1) In Fig 1B, postsynaptic currents were recorded from OHCs in voltage-clamp experiments when cells were held at -64 mV and the whole Corti preparation was superfused with high extracellular K^+ (150 mM) to depolarize the presynapse. Application of high K^+ and toxins as indicated by horizontal bars: current and time scaling as indicated.
as §1, with “3,” for “1B,”, “outer hair cells (OHCs)” for “OHCs”, “K^+” for “K^+ (150 mM)”, “indicated. […] This dose-dependent response determined for the IPSC in OHCs is illustrated in Fig. 3B.” for “indicated.”

CC12CC3CC(C)(C1)CC(N)(C3)C2 [memantine]
IC50 [1]: ~1 µM | inhibition of postsynaptic currents (reversibility) ([2]; OHCs held at -64 mV, dose-dependent response, Fig. 3): reversibly inhibited | IC50 ([2]; Rattus norvegicus, iPSC, OHCs held at -64 mV, high extracellular K+, Fig. 3B): ~16.6 µM

O=C1C[C@@H]2OCC=C3CN4CC[C@]56c7ccccc7N1[C@H]5[C@H]2[C@H]3C[C@H]46 [strychnine]
complete inhibition of current responses at the acetylcholine receptor at (concentration) [1]: 1 µM | reversibility of block of the receptor [1]: reversible block of the receptor | complete inhibition of postsynaptic currents at (concentration) [2]: 100 nM
